Measured values as given in patent US20060224077A1, “Analysis of a skin reactivity and hypersensitivity” (priority 2002, published 2006).

System: maxillary nerve (V2, sensory)
Experiment: Action potential of the maxillary nerve in response to electrical stimulation at face level, recorded non-invasively in vivo
Design: species or system human
Details: cream containing 0.75% capsaicin, 2 mg/cm^2 on a 2×4 mm skin zone immediately above the upper lip; 5 minutes after application; versus before application
From the text: The process according to the invention which uses the electrogenesis of the nerves and/or the brain is characterized in that: • two non-invasive electrodes (1,1′) are applied, at least one of the two electrodes being applied to a specific point of the zone of the skin to be analyzed, the measuring point, in order to detect the electrical activity of the nerves of the skin and/or the subcutaneous nerves at that point or even the electrical activity of the brain. These electrodes are associated with a circuit for evaluating the signals detected by the electrodes, this evaluation circuit comprising amplifying elements (2, 2′, 3), processing elements (7) and recording elements for the signals and also a microprocessor (8), • the skin zone to be analyzed is exposed to a stimulation, more particularly an electrical stimulation, and • the changes in the electrical signals detected by the electrodes driven by the stimulation as a function of time are analyzed over a certain period. […]
FIG. 8 compares the variations in the action potential of the maxillary nerve (V2, sensory) in response to an electrical stimulation at face level before and immediately after the topical application of xylocaine (5%). […] A cream containing 0.75% capsaicin was used for this purpose and was applied in a quantity of 2 mg/cm^2 to a 2×4 mm skin zone immediately above the upper lip. […]

COc1cc(CNC(=O)CCCC/C=C/C(C)C)ccc1O [capsaicin]
increase of the amplitude of the nerve potential after application: 75%
